Results taken from patent US11541028B2, “Peptide pharmaceuticals for treatment of NASH and other disorders” (Mederis Diabetes LLC, priority 2018, dated 2023).
pEC50: −log10 of the molar value. Bridge positions count the residues as written; N and C are the ends. Square brackets hold non-standard residues; d marks the D form. Peptide text beside a SMILES is read from it. * marks the point of attachment. Melibiouronoyl(1β-O-dodecyl) = CCCCCCCCCCCCO[C@@H]1O[C@H](CO[C@H]2O[C@H](C(=O)*)[C@H](O)[C@H](O)[C@H]2O)[C@@H](O)[C@H](O)[C@H]1O; X2 = CCCCCCCCCCCCCCO[C@@H]1O[C@H](CO[C@H]2O[C@H](C(=O)*)[C@H](O)[C@H](O)[C@H]2O)[C@@H](O)[C@H](O)[C@H]1O; βGlcA(1-O-hexadecyl) = CCCCCCCCCCCCCCCCO[C@@H]1O[C@H](C(=O)*)[C@@H](O)[C@H](O)[C@H]1O; GlcA(1β-O-tetradecyl) = CCCCCCCCCCCCCCO[C@@H]1O[C@H](C(=O)*)[C@@H](O)[C@H](O)[C@H]1O; Aib = CC(C)(N)C(=O)O

What was measured:
[1] = target: T1, human GLP-1 receptor (Homo sapiens, UniProt P43220); test: DiscoveRx LeadHunter cellular assay, cAMP stimulation, GLP-1 receptor in CHO cells; format: cell-based; settings: human GLP-1 receptor in CHO cells (DiscoveRx); read-out: EC50 cAMP GLP-1 R
T1 construct: host or cells: CHO cells

[2] = target: T2, human glucagon receptor (Homo sapiens, UniProt P47871); test: DiscoveRx LeadHunter cellular assay, cAMP stimulation, glucagon receptor in CHO cells; format: cell-based
T2 construct: host or cells: CHO cells
T2 sequence (P47871 26-477): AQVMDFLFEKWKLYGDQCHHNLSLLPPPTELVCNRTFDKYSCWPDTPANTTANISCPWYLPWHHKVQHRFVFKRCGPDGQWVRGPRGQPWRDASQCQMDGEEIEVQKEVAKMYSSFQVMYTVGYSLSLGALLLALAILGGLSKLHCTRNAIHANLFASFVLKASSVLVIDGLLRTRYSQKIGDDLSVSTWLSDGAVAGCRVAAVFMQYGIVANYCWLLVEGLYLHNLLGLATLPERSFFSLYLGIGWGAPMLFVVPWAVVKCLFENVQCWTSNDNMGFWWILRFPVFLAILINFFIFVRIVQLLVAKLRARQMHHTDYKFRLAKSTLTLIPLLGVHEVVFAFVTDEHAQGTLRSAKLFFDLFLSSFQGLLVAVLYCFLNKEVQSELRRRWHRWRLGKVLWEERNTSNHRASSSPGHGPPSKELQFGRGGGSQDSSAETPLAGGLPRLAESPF

T1 sequence (P43220 24-463): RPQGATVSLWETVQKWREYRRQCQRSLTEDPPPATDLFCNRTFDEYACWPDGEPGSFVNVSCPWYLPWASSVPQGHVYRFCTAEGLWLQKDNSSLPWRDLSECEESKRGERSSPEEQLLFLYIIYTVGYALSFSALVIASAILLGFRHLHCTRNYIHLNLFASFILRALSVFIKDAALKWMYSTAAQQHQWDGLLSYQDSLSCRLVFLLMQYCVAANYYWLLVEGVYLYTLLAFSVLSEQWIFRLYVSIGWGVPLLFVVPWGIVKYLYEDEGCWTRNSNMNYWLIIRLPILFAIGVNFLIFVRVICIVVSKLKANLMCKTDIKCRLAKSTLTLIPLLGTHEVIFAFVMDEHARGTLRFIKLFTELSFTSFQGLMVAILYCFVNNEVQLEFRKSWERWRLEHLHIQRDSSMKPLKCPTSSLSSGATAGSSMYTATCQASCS

| pEC50 [1] | pEC50 [2] | Structure (SMILES) |
| --- | --- | --- |
| 10.29 | 9.62 | CCCCCCCCCCCCO[C@@H]1O[C@H](CO[C@H]2O[C@H](C(=O)N[C@@H](CCC(=O)N[C@@H](CCC(=O)NCCCC[C@H](NC(=O)[C@@H](NC(=O)[C@H](Cc3ccccc3)NC(=O)[C@H](CCC(=O)O)NC(=O)[C@@H]3CCCCNC(=O)CC[C@H](NC(=O)[C@H](CC(=O)O)NC(=O)[C@H](CC(C)C)NC(=O)[C@H](Cc4ccc(O)cc4)NC(=O)[C@H](CCCCN)NC(=O)[C@H](CO)NC(=O)[C@H](Cc4ccc(O)cc4)NC(=O)[C@H](CC(=O)O)NC(=O)[C@H](CO)NC(=O)[C@@H](NC(=O)[C@H](Cc4ccccc4)NC(=O)[C@@H](NC(=O)CNC(=O)[C@H](CCC(N)=O)NC(=O)C(C)(C)NC(=O)[C@@H](N)Cc4c[nH]cn4)[C@@H](C)O)[C@@H](C)O)C(=O)N[C@@H](CCC(N)=O)C(=O)N[C@@H](C)C(=O)N[C@@H](C)C(=O)N3)[C@@H](C)CC)C(=O)N[C@@H](Cc3c[nH]c4ccccc34)C(=O)N[C@@H](CC(C)C)C(=O)N[C@@H](CC(C)C)C(=O)N[C@@H](CCC(N)=O)C(=O)N[C@H](C(=O)O)[C@@H](C)O)C(=O)O)C(=O)O)[C@H](O)[C@H](O)[C@H]2O)[C@@H](O)[C@H](O)[C@H]1O [EU-A1620] |
| 9.60 | 9.11 | CCCCCCCCCCCCO[C@@H]1O[C@H](CO[C@H]2O[C@H](C(=O)NCCCC[C@@H]3NC(=O)[C@@H](NC(=O)[C@H](CC(=O)O)NC(=O)[C@H](CC(C)C)NC(=O)[C@H](Cc4ccc(O)cc4)NC(=O)[C@H](CCCCN)NC(=O)[C@H](CO)NC(=O)[C@H](Cc4ccc(O)cc4)NC(=O)[C@H](CC(=O)O)NC(=O)[C@H](CO)NC(=O)[C@@H](NC(=O)[C@H](Cc4ccccc4)NC(=O)[C@@H](NC(=O)CNC(=O)[C@H](CCC(N)=O)NC(=O)C(C)(C)NC(=O)[C@@H](N)Cc4c[nH]cn4)[C@@H](C)O)[C@@H](C)O)CCC(=O)NCCCC[C@@H](C(=O)N[C@@H](CCC(=O)O)C(=O)N[C@@H](Cc4ccccc4)C(=O)N[C@H](C(=O)N[C@@H](CCC(=O)O)C(=O)N[C@@H](Cc4c[nH]c5ccccc45)C(=O)N[C@@H](CC(C)C)C(=O)N[C@@H](CC(C)C)C(=O)N[C@@H](CCC(N)=O)C(=O)N[C@H](C(=O)O)[C@@H](C)O)[C@@H](C)CC)NC(=O)[C@H](C)NC(=O)[C@H](C)NC3=O)[C@H](O)[C@H](O)[C@H]2O)[C@@H](O)[C@H](O)[C@H]1O [EU-A1592] (H-H[Aib]QGTFTSDYSKYLDEK(Melibiouronoyl(1β-O-dodecyl))AAKEFIEWLLQT-OH; lactam 16-20; N-terminus assumed) |
| 10.46 | 9.79 | CCCCCCCCCCCCCCO[C@@H]1O[C@H](CO[C@H]2O[C@H](C(=O)NCCCC[C@H](N)C(=O)NCCCC[C@H](NC(=O)[C@@H](NC(=O)[C@H](Cc3ccccc3)NC(=O)[C@H](CCC(=O)O)NC(=O)[C@@H]3CCCCNC(=O)CC[C@H](NC(=O)[C@H](CC(=O)O)NC(=O)[C@H](CC(C)C)NC(=O)[C@H](Cc4ccc(O)cc4)NC(=O)[C@H](CCCCN)NC(=O)[C@H](CO)NC(=O)[C@H](Cc4ccc(O)cc4)NC(=O)[C@H](CC(=O)O)NC(=O)[C@H](CO)NC(=O)[C@@H](NC(=O)[C@H](Cc4ccccc4)NC(=O)[C@@H](NC(=O)CNC(=O)[C@H](CCC(N)=O)NC(=O)C(C)(C)NC(=O)[C@@H](N)Cc4c[nH]cn4)[C@@H](C)O)[C@@H](C)O)C(=O)N[C@@H](CCC(N)=O)C(=O)N[C@@H](C)C(=O)N[C@@H](C)C(=O)N3)[C@@H](C)CC)C(=O)N[C@@H](Cc3c[nH]c4ccccc34)C(=O)N[C@@H](CC(C)C)C(=O)N[C@@H](CC(C)C)C(=O)N[C@@H](CCC(N)=O)C(=O)N[C@H](C(N)=O)[C@@H](C)O)[C@H](O)[C@H](O)[C@H]2O)[C@@H](O)[C@H](O)[C@H]1O [EU-A1602] |
| 11.22 | 9.41 | CCCCCCCCCCCCCCO[C@@H]1O[C@H](C(=O)NCCCC[C@H](NC(=O)[C@H](C)NC(=O)[C@H](C)NC(=O)[C@H](CCC(N)=O)NC(=O)[C@H](CO)NC(=O)[C@H](CC(=O)O)NC(=O)[C@@H]2CCCCNC(=O)CC[C@H](NC(=O)[C@H](CC(=O)O)NC(=O)[C@H](CO)NC(=O)[C@@H](NC(=O)[C@H](Cc3ccccc3)NC(=O)[C@@H](NC(=O)CNC(=O)[C@H](CCC(N)=O)NC(=O)C(C)(C)NC(=O)[C@@H](N)Cc3c[nH]cn3)[C@@H](C)O)[C@@H](C)O)C(=O)N[C@@H](CO)C(=O)N[C@@H](CCCCN)C(=O)N[C@@H](Cc3ccc(O)cc3)C(=O)N2)C(=O)N[C@@H](CCC(=O)O)C(=O)N[C@@H](Cc2ccccc2)C(=O)N[C@H](C(=O)N[C@@H](CCC(N)=O)C(=O)N[C@@H](Cc2c[nH]c3ccccc23)C(=O)N[C@@H](CC(C)C)C(=O)N[C@@H](CC(C)C)C(=O)N[C@@H](CCC(N)=O)C(=O)N[C@H](C(N)=O)[C@@H](C)O)[C@@H](C)CC)[C@@H](O)[C@H](O)[C@H]1O [EU-A1734] (H-H[Aib]QGTFTSDESKYKDSQAAK(GlcA(1β-O-tetradecyl))EFIQWLLQT-NH2; lactam 10-14; N-terminus assumed) |
| 11.10 | 9.03 | CCCCCCCCCCCCCCCCO[C@@H]1O[C@H](C(=O)NCCCC[C@H](NC(=O)[C@H](C)NC(=O)[C@H](C)NC(=O)[C@H](CCC(N)=O)NC(=O)[C@H](CO)NC(=O)[C@H](CC(=O)O)NC(=O)[C@@H]2CCCCNC(=O)CC[C@H](NC(=O)[C@H](CC(=O)O)NC(=O)[C@H](CO)NC(=O)[C@@H](NC(=O)[C@H](Cc3ccccc3)NC(=O)[C@@H](NC(=O)CNC(=O)[C@H](CCC(N)=O)NC(=O)C(C)(C)NC(=O)[C@@H](N)Cc3c[nH]cn3)[C@@H](C)O)[C@@H](C)O)C(=O)N[C@@H](CO)C(=O)N[C@@H](CCCCN)C(=O)N[C@@H](Cc3ccc(O)cc3)C(=O)N2)C(=O)N[C@@H](CCC(=O)O)C(=O)N[C@@H](Cc2ccccc2)C(=O)N[C@H](C(=O)N[C@@H](CCC(N)=O)C(=O)N[C@@H](Cc2c[nH]c3ccccc23)C(=O)N[C@@H](CC(C)C)C(=O)N[C@@H](CC(C)C)C(=O)N[C@@H](CCC(N)=O)C(=O)N[C@H](C(N)=O)[C@@H](C)O)[C@@H](C)CC)[C@@H](O)[C@H](O)[C@H]1O [EU-A1735] (H-H[Aib]QGTFTSDESKYKDSQAAK(βGlcA(1-O-hexadecyl))EFIQWLLQT-NH2; lactam 10-14; N-terminus assumed) |
| 10.68 | 9.95 | CCCCCCCCCCCCCCO[C@@H]1O[C@H](CO[C@H]2O[C@H](C(=O)NCCCC[C@H](NC(=O)[C@H](CC(=O)O)NC(=O)[C@H](CO)NC(=O)[C@@H](NC(=O)[C@H](Cc3ccccc3)NC(=O)[C@@H](NC(=O)CNC(=O)[C@H](CCC(N)=O)NC(=O)C(C)(C)NC(=O)[C@@H](N)Cc3c[nH]cn3)[C@@H](C)O)[C@@H](C)O)C(=O)N[C@@H](CO)C(=O)N[C@@H](CCCCN)C(=O)N[C@@H](Cc3ccc(O)cc3)C(=O)N[C@@H](CC(C)C)C(=O)N[C@@H](CC(=O)O)C(=O)N[C@H]3CCC(=O)NCCCC[C@@H](C(=O)N[C@@H](CCC(=O)O)C(=O)N[C@@H](Cc4ccccc4)C(=O)N[C@H](C(=O)N[C@@H](CCC(N)=O)C(=O)N[C@@H](Cc4c[nH]c5ccccc45)C(=O)N[C@@H](CC(C)C)C(=O)N[C@@H](CC(C)C)C(=O)N[C@@H](CCC(N)=O)C(=O)N[C@H](C(N)=O)[C@@H](C)O)[C@@H](C)CC)NC(=O)[C@H](C)NC(=O)[C@H](C)NC(=O)[C@H](CCC(N)=O)NC3=O)[C@H](O)[C@H](O)[C@H]2O)[C@@H](O)[C@H](O)[C@H]1O [EU-A1595] (H-H[Aib]QGTFTSDK(X2)SKYLDEQAAKEFIQWLLQT-NH2; lactam 16-20; N-terminus assumed) |
